# Test results from the NIST ThermoML archive (doi:10.1021/acs.jced.5b00980).
# ± gives the expanded uncertainty stated by the source.
# Assay: activity coefficient (dimensionless); of the first substance listed, at infinite dilution; xn = mol fraction of the nth substance listed
# Conditions: 328.15 K; 100 kPa; Liquid; Chromatography; x1 = 0
row,SMILES,activity coefficient
1,"Cc1ccccc1C [1,2-dimethylbenzene] + CCCC[P+](CC)(CCCC)CCCC.CCOP(=O)([O-])OCC",1.55 ± 0.1
2,"Cc1cccc(C)c1 [1,3-dimethylbenzene] + CCCC[P+](CC)(CCCC)CCCC.CCOP(=O)([O-])OCC",1.7 ± 0.11
3,"Cc1ccc(C)cc1 [1,4-dimethylbenzene] + CCCC[P+](CC)(CCCC)CCCC.CCOP(=O)([O-])OCC",1.64 ± 0.11
4,"C1COCCO1 [1,4-dioxane] + CCCC[P+](CC)(CCCC)CCCC.CCOP(=O)([O-])OCC",1.08 ± 0.07
5,C=CCCCCCCCC [1-decene] + CCCC[P+](CC)(CCCC)CCCC.CCOP(=O)([O-])OCC,5.2 ± 0.35
6,C=CCCCCC [1-heptene] + CCCC[P+](CC)(CCCC)CCCC.CCOP(=O)([O-])OCC,3.06 ± 0.21
7,C#CCCCCC [1-heptyne] + CCCC[P+](CC)(CCCC)CCCC.CCOP(=O)([O-])OCC,1.01 ± 0.06
8,C#CCCCC [1-hexyne] + CCCC[P+](CC)(CCCC)CCCC.CCOP(=O)([O-])OCC,0.849 ± 0.054
9,CCC[N+](=O)[O-] [1-nitropropane] + CCCC[P+](CC)(CCCC)CCCC.CCOP(=O)([O-])OCC,0.499 ± 0.038
10,C#CCCCCCC [1-octyne] + CCCC[P+](CC)(CCCC)CCCC.CCOP(=O)([O-])OCC,1.17 ± 0.07
11,C=CCCC [1-pentene] + CCCC[P+](CC)(CCCC)CCCC.CCOP(=O)([O-])OCC,2.18 ± 0.15
12,C#CCCC [1-pentyne] + CCCC[P+](CC)(CCCC)CCCC.CCOP(=O)([O-])OCC,0.725 ± 0.048
13,"CC(C)CC(C)(C)C [2,2,4-trimethylpentane] + CCCC[P+](CC)(CCCC)CCCC.CCOP(=O)([O-])OCC",4.38 ± 0.3
14,"CCC(C)(C)C [2,2-dimethylbutane] + CCCC[P+](CC)(CCCC)CCCC.CCOP(=O)([O-])OCC",3.34 ± 0.23
15,CCOC(C)(C)C [2-ethoxy-2-methylpropane] + CCCC[P+](CC)(CCCC)CCCC.CCOP(=O)([O-])OCC,2.66 ± 0.18
16,CCCCC(C)=O [2-hexanone] + CCCC[P+](CC)(CCCC)CCCC.CCOP(=O)([O-])OCC,1.15 ± 0.07
17,CCC(C)(C)OC [2-methoxy-2-methylbutane] + CCCC[P+](CC)(CCCC)CCCC.CCOP(=O)([O-])OCC,2.09 ± 0.14
18,COC(C)(C)C [2-methoxy-2-methylpropane] + CCCC[P+](CC)(CCCC)CCCC.CCOP(=O)([O-])OCC,1.89 ± 0.13
19,CCCC(=O)CC [3-hexanone] + CCCC[P+](CC)(CCCC)CCCC.CCOP(=O)([O-])OCC,1.23 ± 0.08

row,SMILES,activity coefficient
1,CCC(C)CC [3-methylpentane] + CCCC[P+](CC)(CCCC)CCCC.CCOP(=O)([O-])OCC,3.17 ± 0.22
2,CC(C)=O [acetone] + CCCC[P+](CC)(CCCC)CCCC.CCOP(=O)([O-])OCC,0.835 ± 0.054
3,CC#N [acetonitrile] + CCCC[P+](CC)(CCCC)CCCC.CCOP(=O)([O-])OCC,0.464 ± 0.036
4,c1ccccc1 [benzene] + CCCC[P+](CC)(CCCC)CCCC.CCOP(=O)([O-])OCC,0.871 ± 0.056
5,C1CCCCCC1 [cycloheptane] + CCCC[P+](CC)(CCCC)CCCC.CCOP(=O)([O-])OCC,2.48 ± 0.17
6,C1CCCCC1 [cyclohexane] + CCCC[P+](CC)(CCCC)CCCC.CCOP(=O)([O-])OCC,2.17 ± 0.15
7,C1=CCCCC1 [cyclohexene] + CCCC[P+](CC)(CCCC)CCCC.CCOP(=O)([O-])OCC,1.72 ± 0.12
8,C1CCCCCCC1 [cyclooctane] + CCCC[P+](CC)(CCCC)CCCC.CCOP(=O)([O-])OCC,2.82 ± 0.19
9,C1CCCC1 [cyclopentane] + CCCC[P+](CC)(CCCC)CCCC.CCOP(=O)([O-])OCC,1.83 ± 0.12
10,CCCCCCCCCC [decane] + CCCC[P+](CC)(CCCC)CCCC.CCOP(=O)([O-])OCC,7.01 ± 0.48
11,CCOCC [diethyl ether] + CCCC[P+](CC)(CCCC)CCCC.CCOP(=O)([O-])OCC,1.79 ± 0.12
12,CC(C)OC(C)C [diisopropyl ether] + CCCC[P+](CC)(CCCC)CCCC.CCOP(=O)([O-])OCC,2.82 ± 0.19
13,CCCOCCC [dipropyl ether] + CCCC[P+](CC)(CCCC)CCCC.CCOP(=O)([O-])OCC,2.59 ± 0.18
14,CCc1ccccc1 [ethylbenzene] + CCCC[P+](CC)(CCCC)CCCC.CCOP(=O)([O-])OCC,1.55 ± 0.1
15,CCCCCCC [heptane] + CCCC[P+](CC)(CCCC)CCCC.CCOP(=O)([O-])OCC,4.08 ± 0.28
16,C=CCCCC [hex-1-ene] + CCCC[P+](CC)(CCCC)CCCC.CCOP(=O)([O-])OCC,2.59 ± 0.18
17,CCCCCC [hexane] + CCCC[P+](CC)(CCCC)CCCC.CCOP(=O)([O-])OCC,3.4 ± 0.23
18,CC1CCCCC1 [methylcyclohexane] + CCCC[P+](CC)(CCCC)CCCC.CCOP(=O)([O-])OCC,2.62 ± 0.18

# Same assay, conditions: 338.15 K; 100 kPa; Liquid; Chromatography; x1 = 0
row,SMILES,activity coefficient
1,"Cc1ccccc1C [1,2-dimethylbenzene] + CCCC[P+](CC)(CCCC)CCCC.CCOP(=O)([O-])OCC",1.52 ± 0.1
2,"Cc1cccc(C)c1 [1,3-dimethylbenzene] + CCCC[P+](CC)(CCCC)CCCC.CCOP(=O)([O-])OCC",1.67 ± 0.11
3,"Cc1ccc(C)cc1 [1,4-dimethylbenzene] + CCCC[P+](CC)(CCCC)CCCC.CCOP(=O)([O-])OCC",1.61 ± 0.11
4,"C1COCCO1 [1,4-dioxane] + CCCC[P+](CC)(CCCC)CCCC.CCOP(=O)([O-])OCC",1.06 ± 0.07
5,C=CCCCCCCCC [1-decene] + CCCC[P+](CC)(CCCC)CCCC.CCOP(=O)([O-])OCC,5.06 ± 0.34
6,C=CCCCCC [1-heptene] + CCCC[P+](CC)(CCCC)CCCC.CCOP(=O)([O-])OCC,3.01 ± 0.2
7,C#CCCCCC [1-heptyne] + CCCC[P+](CC)(CCCC)CCCC.CCOP(=O)([O-])OCC,1.05 ± 0.07
8,C#CCCCC [1-hexyne] + CCCC[P+](CC)(CCCC)CCCC.CCOP(=O)([O-])OCC,0.893 ± 0.057
9,CCC[N+](=O)[O-] [1-nitropropane] + CCCC[P+](CC)(CCCC)CCCC.CCOP(=O)([O-])OCC,0.507 ± 0.038
10,C#CCCCCCC [1-octyne] + CCCC[P+](CC)(CCCC)CCCC.CCOP(=O)([O-])OCC,1.22 ± 0.08
11,C=CCCC [1-pentene] + CCCC[P+](CC)(CCCC)CCCC.CCOP(=O)([O-])OCC,2.15 ± 0.15
